Source: patent US8796289B2 (AbbVie Inc., priority 2011, dated 2014)

biological target: GST-tagged-Wee1 kinase (Homo sapiens, UniProt P30291); assay: Wee1 time-resolved fluorescence equilibrium binding assay (displacement of Oregon Green-labeled ATP-competitive kinase probe); conditions: not given
Protocol: Wee1 kinase was assayed using a time-resolved fluorescence equilibrium binding assay monitoring displacement of a rapidly reversible Oregon Green-labeled ATP-competitive kinase probe (N-(2-(2-(2-(4-(4-(5-chloro-4-(2-(1-hydroxycyclobutyl)thiazol-5-yl)-1H-pyrrolo[2,3-b]pyridin-2-yl)phenyl)piperazin-1-yl)ethoxy)ethoxy)ethyl)-2′,7′-difluoro-3′,6′-dihydroxy-3-oxo-3H-spiro[isobenzofuran-1,9′-xanthene]-5-carboxamide) by competitive Wee1 inhibitors.

GST-tagged-Wee1 kinase, sequence (P30291 whole entry): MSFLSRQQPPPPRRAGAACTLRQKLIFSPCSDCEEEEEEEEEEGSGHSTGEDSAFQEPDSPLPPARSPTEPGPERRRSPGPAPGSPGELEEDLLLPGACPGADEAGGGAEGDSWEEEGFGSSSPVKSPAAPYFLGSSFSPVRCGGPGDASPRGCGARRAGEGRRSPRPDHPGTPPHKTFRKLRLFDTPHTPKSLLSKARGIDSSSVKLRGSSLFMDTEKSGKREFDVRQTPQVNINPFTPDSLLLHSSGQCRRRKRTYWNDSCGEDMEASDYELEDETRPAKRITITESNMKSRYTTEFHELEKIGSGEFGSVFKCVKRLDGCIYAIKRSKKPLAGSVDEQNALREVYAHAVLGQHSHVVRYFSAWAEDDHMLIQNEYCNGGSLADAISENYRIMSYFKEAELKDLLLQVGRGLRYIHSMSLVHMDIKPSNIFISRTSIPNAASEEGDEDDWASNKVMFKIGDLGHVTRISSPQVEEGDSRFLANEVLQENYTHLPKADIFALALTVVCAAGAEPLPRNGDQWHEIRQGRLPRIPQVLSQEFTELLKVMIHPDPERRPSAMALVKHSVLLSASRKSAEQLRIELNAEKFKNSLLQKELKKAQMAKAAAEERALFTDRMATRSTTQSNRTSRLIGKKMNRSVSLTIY

Ki [nM]	Compound
0.02	CNCc1cccc(-c2nn(-c3c(Cl)cccc3Cl)c(=O)c3cnc(Nc4ccc(N5CCN(C)CC5)cc4)nc23)c1 [Example 183, 6-(2,6-dichlorophenyl)-8-{3-[(methylamino)methyl]phenyl}-2-{[4-(4-methylpiperazin-1-yl)phenyl]amino}pyrimido[4,5-d]pyridazin-5(6H)-one]
2	CN1CCN(c2ccc(Nc3ncc4c(=O)n(-c5ccccc5)nc(-c5ccccc5)c4n3)cc2)CC1 [Example 27, 2-{[4-(4-methylpiperazin-1-yl)phenyl]amino}-6,8-diphenylpyrimido[4,5-d]pyridazin-5(6H)-one]
620	CN1CCN(c2ccc(Nc3ncc4c(=O)n(C)nc(C5CCCC5)c4n3)cc2)CC1 [Example 13, 8-cyclopentyl-6-methyl-2-{[4-(4-methylpiperazin-1-yl)phenyl]amino}pyrimido[4,5-d]pyridazin-5(6H)-one]
0.7	COCc1nn(-c2c(Cl)cccc2Cl)c(=O)c2cnc(Nc3ccc(N4CCN(C)CC4)cc3)nc12 [Example 423, 6-(2,6-dichlorophenyl)-8-(methoxymethyl)-2-{[4-(4-methylpiperazin-1-yl)phenyl]amino}pyrimido[4,5-d]pyridazin-5(6H)-one]
0.13	Cc1nn(-c2c(Cl)cccc2Cl)c(=O)c2cnc(Nc3cccc(NC4CCN(C)CC4)c3)nc12 [Example 522, 6-(2,6-dichlorophenyl)-8-methyl-2-({3-[(1-methylpiperidin-4-yl)amino]phenyl}amino)pyrimido[4,5-d]pyridazin-5(6H)-one]
3	C=CCn1nc(-c2cccs2)c2nc(Nc3ccc4c(c3)CN(C)CC43CC3)ncc2c1=O [Example 117, 6-allyl-2-[(2′-methyl-2′,3′-dihydro-1′H-spiro[cyclopropane-1,4′-isoquinolin]-7′-yl)amino]-8-(2-thienyl)pyrimido[4,5-d]pyridazin-5(6H)-one]
501	CC(O)Cn1nc(-c2ccccn2)c2nc(Nc3ccc4c(c3)CNCC4(C)C)ncc2c1=O (stereo not shown) [Example 295, 2-[(4,4-dimethyl-1,2,3,4-tetrahydroisoquinolin-7-yl)amino]-6-(2-hydroxypropyl)-8-(pyridin-2-yl)pyrimido[4,5-d]pyridazin-5(6H)-one]
> 3140	Cc1ccccc1-n1nc(-c2cccs2)c2nc(Nc3ccc(S(=O)(=O)N4CCOCC4)cc3)ncc2c1=O [Example 129, 6-(2-methylphenyl)-2-{[4-(morpholin-4-ylsulfonyl)phenyl]amino}-8-(2-thienyl)pyrimido[4,5-d]pyridazin-5(6H)-one]
0.48	CN1CCN(c2ccc(Nc3ncc4c(=O)n(-c5c(Cl)cccc5Cl)nc(C5CC5)c4n3)cc2)CC1 [Example 386, 8-cyclopropyl-6-(2,6-dichlorophenyl)-2-{[4-(4-methylpiperazin-1-yl)phenyl]amino}pyrimido[4,5-d]pyridazin-5(6H)-one]
0.15	CN1Cc2cc(Nc3ncc4c(=O)n(-c5c(Cl)cccc5Cl)nc(C(F)F)c4n3)ccc2C1(C)C [Example 485, 6-(2,6-dichlorophenyl)-8-(difluoromethyl)-2-[(1,1,2-trimethyl-2,3-dihydro-1H-isoindol-5-yl)amino]pyrimido[4,5-d]pyridazin-5(6H)-one]
0.19	Cc1nn(-c2c(Cl)cccc2Cl)c(=O)c2cnc(Nc3ccc(N4CCC(N(C)C)CC4)cc3)nc12 [Example 425, 6-(2,6-dichlorophenyl)-2-({4-[4-(dimethylamino)piperidin-1-yl]phenyl}amino)-8-methylpyrimido[4,5-d]pyridazin-5(6H)-one]
0.8	CN(C)Cc1ccc(Nc2ncc3c(=O)n(-c4ccccc4Cl)nc(-c4cccs4)c3n2)cc1 [Example 209, 6-(2-chlorophenyl)-2-({4-[(dimethylamino)methyl]phenyl}amino)-8-(thiophen-2-yl)pyrimido[4,5-d]pyridazin-5(6H)-one]
0.19	Cc1nn(-c2c(Cl)cccc2Cl)c(=O)c2cnc(Nc3ccc4c(c3)CN(C(N)=O)CC43CC3)nc12 [Example 416, 7′-{[6-(2,6-dichlorophenyl)-8-methyl-5-oxo-5,6-dihydropyrimido[4,5-d]pyridazin-2-yl]amino}-1′H-spiro[cyclopropane-1,4′-isoquinoline]-2′(3′H)-carboxamide]
710	CCOc1ncccc1-c1nn(-c2ccccc2)c(=O)c2cnc(Nc3ccc(N4CCN(C)CC4)cc3)nc12 [Example 79, 8-(2-ethoxypyridin-3-yl)-2-{[4-(4-methylpiperazin-1-yl)phenyl]amino}-6-phenylpyrimido[4,5-d]pyridazin-5(6H)-one]
0.48	COCc1nn(-c2c(Cl)cccc2Cl)c(=O)c2cnc(Nc3ccc4c(c3)CN(C)CC43CC3)nc12 [Example 429, 6-(2,6-dichlorophenyl)-8-(methoxymethyl)-2-[(2′-methyl-2′,3′-dihydro-1′H-spiro[cyclopropane-1,4′-isoquinolin]-7′-yl)amino]pyrimido[4,5-d]pyridazin-5(6H)-one]
0.12	Cc1nn(-c2c(Cl)cccc2Cl)c(=O)c2cnc(Nc3ccc4c(c3)CNCC43CC3)nc12 [Example 300, 6-(2,6-dichlorophenyl)-2-(2′,3′-dihydro-1′H-spiro[cyclopropane-1,4′-isoquinolin]-7′-ylamino)-8-methylpyrimido[4,5-d]pyridazin-5(6H)-one]
0.6	CN1Cc2cc(Nc3ncc4c(=O)n(-c5c(Cl)cccc5Cl)nc(-c5ccccn5)c4n3)ccc2C2(CC2)C1 [Example 104, 6-(2,6-dichlorophenyl)-2-[(2′-methyl-2′,3′-dihydro-1′H-spiro[cyclopropane-1,4′-isoquinolin]-7′-yl)amino]-8-(pyridin-2-yl)pyrimido[4,5-d]pyridazin-5(6H)-one]
< 1	CN1Cc2cc(Nc3ncc4c(=O)n(-c5c(Cl)cccc5Cl)nc(-c5cccc(F)n5)c4n3)ccc2C2(CC2)C1 [Example 227, 6-(2,6-dichlorophenyl)-8-(6-fluoropyridin-2-yl)-2-[(2′-methyl-2′,3′-dihydro-1′H-spiro[cyclopropane-1,4′-isoquinolin]-7′-yl)amino]pyrimido[4,5-d]pyridazin-5(6H)-one]
0.22	Cc1nn(-c2c(Cl)cccc2Cl)c(=O)c2cnc(Nc3ccc4c(c3)CN(C)CC43CC3)nc12 [Example 401, 6-(2,6-dichlorophenyl)-8-methyl-2-[(2′-methyl-2′,3′-dihydro-1′H-spiro[cyclopropane-1,4′-isoquinolin]-7′-yl)amino]pyrimido[4,5-d]pyridazin-5(6H)-one]
0.7	CN1CCc2ccc(Nc3ncc4c(=O)n(-c5ccccc5Cl)nc(-c5ccccc5)c4n3)cc2C1 [Example 245, 6-(2-chlorophenyl)-2-[(2-methyl-1,2,3,4-tetrahydroisoquinolin-7-yl)amino]-8-phenylpyrimido[4,5-d]pyridazin-5(6H)-one]
0.87	CN1Cc2cc(Nc3ncc4c(=O)n(-c5c(Cl)cccc5Cl)nc(-c5nccn5C)c4n3)ccc2C2(CC2)C1 [Example 357, 6-(2,6-dichlorophenyl)-2-[(2′-methyl-2′,3′-dihydro-1′H-spiro[cyclopropane-1,4′-isoquinolin]-7′-yl)amino]-8-(1-methyl-1H-imidazol-2-yl)pyrimido[4,5-d]pyridazin-5(6H)-one]
1	CCCc1nn(-c2ccccc2Cl)c(=O)c2cnc(Nc3ccc(N4CCN(C)CC4)cc3)nc12 [Example 25, 6-(2-chlorophenyl)-2-{[4-(4-methylpiperazin-1-yl)phenyl]amino}-8-propylpyrimido[4,5-d]pyridazin-5(6H)-one]
4	C=CCn1nc(-c2ccccc2)c2nc(Nc3ccc(N4CCCN(C(C)C)CC4)c(C)c3)ncc2c1=O [Example 115, 6-allyl-2-{[4-(4-isopropyl-1,4-diazepan-1-yl)-3-methylphenyl]amino}-8-phenylpyrimido[4,5-d]pyridazin-5(6H)-one]
0.1	O=c1c2cnc(Nc3ccc4c(c3)CNCC4)nc2c(-c2ccccn2)nn1-c1c(Cl)cccc1Cl [Example 217, 6-(2,6-dichlorophenyl)-8-(pyridin-2-yl)-2-(1,2,3,4-tetrahydroisoquinolin-7-ylamino)pyrimido[4,5-d]pyridazin-5(6H)-one]
0.7	O=c1c2cnc(Nc3ccc(N4CCNCC4)cc3)nc2cnn1-c1c(Cl)cccc1Cl [Example 325, 6-(2,6-dichlorophenyl)-2-{[4-(piperazin-1-yl)phenyl]amino}pyrimido[4,5-d]pyridazin-5(6H)-one]
11	CC(C)n1nc(-c2ccncc2)c2nc(Nc3ccc(N4CCN(C)CC4)cc3)ncc2c1=O [Example 273, 2-{[4-(4-methylpiperazin-1-yl)phenyl]amino}-6-(propan-2-yl)-8-(pyridin-4-yl)pyrimido[4,5-d]pyridazin-5(6H)-one]
0.16	Cc1cccc(Cl)c1-n1nc(C)c2nc(Nc3ccc4c(c3)CNCC4)ncc2c1=O [Example 495, 6-(2-chloro-6-methylphenyl)-8-methyl-2-(1,2,3,4-tetrahydroisoquinolin-7-ylamino)pyrimido[4,5-d]pyridazin-5(6H)-one]
0.2	CN1CCN(c2ccc(Nc3ncc4c(=O)n(-c5c(Cl)cccc5Cl)nc(-c5ccnc(Cl)c5)c4n3)cc2)CC1 [Example 260, 8-(2-chloropyridin-4-yl)-6-(2,6-dichlorophenyl)-2-{[4-(4-methylpiperazin-1-yl)phenyl]amino}pyrimido[4,5-d]pyridazin-5(6H)-one]
0.4	Cc1nn(-c2c(Cl)cncc2Cl)c(=O)c2cnc(Nc3ccc4c(c3)CNCC43CC3)nc12 [Example 447, 6-(3,5-dichloropyridin-4-yl)-2-(2′,3′-dihydro-1′H-spiro[cyclopropane-1,4′-isoquinolin]-7′-ylamino)-8-methylpyrimido[4,5-d]pyridazin-5(6H)-one]

same assay, conditions: read-out: Wee-1 inhibition Ki

Compound	Ki [nM]
Cc1nn(-c2c(Cl)cccc2Cl)c(=O)c2cnc(Nc3ccc4c(c3)CNCC4)nc12 [Example 371]	0.2
6-(2-chlorophenyl)-8-(6-chloropyridin-2-yl)-2-{[4-(4-methylpiperazin-1-yl)phenyl]amino}pyrimido[4,5-d]pyridazin-5(6H)-one [Example 77]	0.7
